Assay results: patent US9765049B2, “N-cycloalkyl-N-[(fusedphenyl)methylene]-(thio)carboxamide derivatives” (BAYER CROPSCIENCE AG, priority 2013, dated 2017)
Read-outs that look alike come from different tables or passages of the source.

Experiments:
[1] = log P by HPLC on reversed-phase column (C 18), EEC Directive 79/831 Annex V.A8; assay type: physicochemical; details: for logP: Table 1, 40° C.
Method: In table 1, the log P values were determined in accordance with EEC Directive 79/831 Annex V.A8 by HPLC (High Performance Liquid Chromatography) on a reversed-phase column (C 18), using the method described below: Temperature: 40° C.; Mobile phases: 0.1% aqueous formic acid and acetonitrile; linear gradient from 10% acetonitrile to 90% acetonitrile. Calibration was carried out using unbranched alkan-2-ones (comprising 3 to 16 carbon atoms) with known log P values (determination of the log P values by the retention times using linear interpolation between two successive alkanones). lambda-max-values were determined using UV-spectra from 200 nm to 400 nm and the peak values of the chromatographic signals.

Botrytis cinerea = test: In vivo preventive test Botrytis cinerea (grey mould); details: gherkin plants
Method: (§1) Example B: In Vivo Preventive Test Botrytis cinerea (Grey Mould) [table] The active ingredients are made soluble and homogenized in a mixture of Dimethyl sulfoxide/Acetone/Tween®80 and then diluted in water to the desired concentration. The young plants of gherkin are treated by spraying the active ingredient prepared as described above. Control plants are treated only with an aqueous solution of Acetone/Dimethyl sulfoxide/Tween® 80. After 24 hours, the plants are contaminated by spraying the leaves with an aqueous suspension of Botrytis cinerea spores. The contaminated gherkin plants are incubated for 4 to 5 days at 17° C. and at 90% relative humidity.

Sphaerotheca fuliginea = test: In vivo preventive test on Sphaerotheca fuliginea (powdery mildew on cucurbits); details: 500 ppm, gherkin plants, preventive spray, evaluated 15 days after inoculation
Method: as §1, with “F:” for “B:”, “on Sphaerotheca fuliginea (Powdery Mildew on Cucurbits)” for “Botrytis cinerea (Grey Mould)”, “Sphaerotheca fuliginea” for “Botrytis cinerea”, “spores.” for “spores. The contaminated gherkin plants are incubated for 4 to 5 days at 17° C. and at 90% relative humidity.”

Uromyces appendiculatus = test: In vivo preventive test on Uromyces appendiculatus (bean rust); details: Table G; 500 ppm, bean plants, preventive spray, evaluated 11 days after inoculation
Method: as §1, with “G:” for “B:”, “on Uromyces appendiculatus (Bean Rust)” for “Botrytis cinerea (Grey Mould)”, “bean” for “gherkin”, “Uromyces appendiculatus” for “Botrytis cinerea”, “spores.” for “spores. The contaminated gherkin plants are incubated for 4 to 5 days at 17° C. and at 90% relative humidity.”

Puccinia recondita = test: In vivo preventive test on Puccinia recondita (brown rust on wheat); details: 500 ppm, wheat plants, preventive spray, evaluated 11 days after inoculation
Method: as §1, with “C:” for “B:”, “on Puccinia recondita (Brown Rust on Wheat)” for “Botrytis cinerea (Grey Mould)”, “wheat” for “gherkin”, “Puccinia recondita” for “Botrytis cinerea”, “spores.” for “spores. The contaminated gherkin plants are incubated for 4 to 5 days at 17° C. and at 90% relative humidity.”

Septoria tritici = test: In vivo preventive test on Septoria tritici (wheat); details: 500 ppm, wheat plants, preventive spray, evaluated 24 days after inoculation
Method: as §1, with “E:” for “B:”, “on Septoria tritici (Wheat)” for “Botrytis cinerea (Grey Mould)”, “wheat” for “gherkin”, “Septoria tritici” for “Botrytis cinerea”, “72 hours at 18° C. and at 100% relative humidity and then for 21” for “4 to 5”, “20°” for “17°”

Pyrenophora teres = test: In vivo preventive test on Pyrenophora teres (net blotch on barley); details: 500 ppm, barley plants, preventive spray, evaluated 14 days after inoculation
Method: as §1, with “D:” for “B:”, “on Pyrenophora teres (Net Blotch on Barley)” for “Botrytis cinerea (Grey Mould)”, “barley” for “gherkin”, “Pyrenophora teres” for “Botrytis cinerea”, “spores.” for “spores. The contaminated gherkin plants are incubated for 4 to 5 days at 17° C. and at 90% relative humidity.”

[2] = tested on: Fusarium nivale (var. majus); test: Efficacy against Fusarium nivale (var. majus) (wheat), curative test; assay type: in vivo; details: evaluated 5 days after inoculation
Method: Example I: Efficacy Against Fusarium nivale (Var. Majus) (Wheat) [table] To produce a suitable preparation of active compound, 1 part by weight of active compound or active compound combination is mixed with the stated amounts of solvent and emulsifier, and the concentrate is diluted with water to the desired concentration. […] After the spray coating has dried on, the plants remain in a greenhouse under translucent incubation cloches at a temperature of approximately 10° C. and a relative atmospheric humidity of approximately 100%.

[3] = HPLC, 0.1% aqueous formic acid and acetonitrile
[4] = reversed-phase HPLC column (C 18), Table 3 (aldehydes of formula IV), HPLC, 0.1% aqueous formic acid and acetonitrile, read-out: logP
[5] = reversed-phase HPLC column (C 18), Table 2 (amines of formula IIa), HPLC, 0.1% aqueous formic acid and acetonitrile, read-out: logP
[6] = Table B, 500 ppm, preventive spray, evaluated 4 to 5 days after inoculation

Cn1nc(C(F)F)c(C(=O)N(Cc2cccc3c2C2C=CC3O2)C2CC2)c1Cl (stereo not shown) [I.13]
logP [1, 3]: 2.42

Cn1cc(C(=O)N(Cc2cccc3c2CCCC3)C2CC2)c(C(F)F)n1 [CMP3, N-cyclopropyl-3-(difluoromethyl)-1-methyl-N-(5,6,7,8-tetrahydronaphthalen-1-ylmethyl)-1H-pyrazole-4-carboxamide, reference compound]
Efficacy (Botrytis cinerea; Table B2, dose 100 ppm): 0%
Efficacy (Botrytis cinerea; Table B2, dose 500 ppm): 0%

O=Cc1cccc2c1C1CCC2O1 (stereo not shown) [IV.4, 1,2,3,4-tetrahydro-1,4-epoxynaphthalene-5-carbaldehyde]
chromatographic logP [1, 4]: 1.66

O=C(c1ccsc1Br)N(Cc1cccc2c1C1C=CC2O1)C1CC1 (stereo not shown) [I.21]
logP [1, 3]: 2.96

Cn1nc(C(F)F)c(C(=S)N(Cc2cccc3c2C2CCC3C2=C(Cl)Cl)C2CC2)c1Cl (stereo not shown) [I.09]
logP [1, 3]: 5.39
Efficacy (Sphaerotheca fuliginea): 98%
Efficacy (Uromyces appendiculatus): 78%

c1cc(CNC2CC2)c2c(c1)C1CCC2C1 (stereo not shown) [IIa.1, N-(1,2,3,4-tetrahydro-1,4-methanonaphthalen-5-ylmethyl)cyclopropanamine]
chromatographic logP [1, 5]: 1.31

Cn1nc(C(F)F)c(C(=O)N(Cc2cccc3c2C2C=CC3C2)C2CC2)c1Cl (stereo not shown) [I.05]
logP [1, 3]: 3.70
Efficacy (Puccinia recondita): 94%
Efficacy (Septoria tritici): 81%
Efficacy (Sphaerotheca fuliginea): 72%

Cc1cc(C(=O)N(Cc2cccc3c2C2C=CC3O2)C2CC2)c(C)o1 (stereo not shown) [I.16]
logP [1, 3]: 2.82
Efficacy (Septoria tritici): 81%

Cn1cc(C(=O)N(Cc2cccc3c2C2C=CC3C2)C2CC2)c(C(F)F)n1 (stereo not shown) [I.03]
logP [1, 3]: 3.19
Efficacy (Pyrenophora teres): 88%
Efficacy (Sphaerotheca fuliginea): 98%

Cn1nc(C(F)F)c(C(=S)N(Cc2cccc3c2C2C=CC3O2)C2CC2)c1F (stereo not shown) [I.19]
logP [1, 3]: 3.04

Cn1nc(C(F)F)c(C(=O)N(Cc2cccc3ccccc23)C2CC2)c1F [CMP1, N-cyclopropyl-3-(difluoromethyl)-5-fluoro-1-methyl-N-(1-naphthylmethyl)-1H-pyrazole-4-carboxamide, reference compound]
Efficacy (Botrytis cinerea; Table B2, dose 100 ppm): 10%
Efficacy (Botrytis cinerea; Table B2, dose 500 ppm): 70%

Cc1nn(C)c(F)c1C(=O)N(Cc1cccc2c1CCCC2)C1CC1 [CMP2, N-cyclopropyl-5-fluoro-1,3-dimethyl-N-(5,6,7,8-tetrahydronaphthalen-1-ylmethyl)-1H-pyrazole-4-carboxamide, reference compound]
Efficacy (Botrytis cinerea; Table B2, dose 100 ppm): 0%
Efficacy (Botrytis cinerea; Table B2, dose 500 ppm): 35%

c1cc(CNC2CC2)c2c(c1)C1CCC2O1 (stereo not shown) [IIa.4, N-(1,2,3,4-tetrahydro-1,4-epoxynaphthalen-5-ylmethyl)cyclopropanamine]
chromatographic logP [1, 5]: 0.45

Cn1nc(C(F)F)c(C(=S)N(Cc2cccc3c2C2C=CC3O2)C2CC2)c1Cl (stereo not shown) [I.20]
logP [1, 3]: 3.17

Cc1cc(C(=O)N(Cc2cccc3c2C2CCC3O2)C2CC2)c(C)o1 (stereo not shown) [I.22]
logP [1, 3]: 3.04

O=Cc1cccc2c1C1CCC2C1 (stereo not shown) [IV.1, 1,2,3,4-tetrahydro-1,4-methanonaphthalene-5-carbaldehyde]
chromatographic logP [1, 4]: 3.13

C1=CC2OC1c1cccc(CNC3CC3)c12 (stereo not shown) [IIa.5, N-(1,4-dihydro-1,4-epoxynaphthalen-5-ylmethyl)cyclopropanamine]
chromatographic logP [1, 5]: 0.13

CC1CCc2cccc(C(C)N(C(=O)c3c(C(F)F)nn(C)c3F)C3CC3)c2C1 (stereo not shown) [50 from WO-2010/130767, N-cyclopropyl-3-(difluoromethyl)-5-fluoro-1-methyl-N-[1-(7-methyl-5,6,7,8-tetrahydronaphthalen-1-yl)ethyl]-1H-pyrazole-4-carboxamide]
Efficacy ([2]; dose 250 ppm): 67%
Efficacy ([2]; dose 500 ppm): 67%

ClC(Cl)=C1C2CCC1c1c(CNC3CC3)cccc12 (stereo not shown) [IIa.3, N-{[9-(dichloromethylene)-1,2,3,4-tetrahydro-1,4-methanonaphthalen-5-yl]methyl}-cyclopropanamine]
chromatographic logP [1]: 1.95

Cn1nc(C(F)F)c(C(=O)N(Cc2cccc3c2C2CCC3C2=C(Cl)Cl)C2CC2)c1Cl (stereo not shown) [I.06]
logP [1, 3]: 4.66
Efficacy (Pyrenophora teres): 71%
Efficacy (Septoria tritici): 71%
Efficacy (Sphaerotheca fuliginea): 95%

Cn1nc(C(F)F)c(C(=O)N(Cc2cccc3c2C2C=CC3O2)C2CC2)c1F (stereo not shown) [I.14]
logP [1, 3]: 2.31
Efficacy (Pyrenophora teres): 75%
Efficacy (Septoria tritici): 98%
Efficacy (Sphaerotheca fuliginea): 94%

O=Cc1cccc2c1C1C=CC2O1 (stereo not shown) [IV.5, 1,4-dihydro-1,4-epoxynaphthalene-5-carbaldehyde]
chromatographic logP [1, 4]: 1.5

Cc1nc(C(F)F)c(C(=O)N(Cc2cccc3c2C2C=CC3O2)C2CC2)s1 (stereo not shown) [I.18]
logP [1, 3]: 2.51

Cc1nn(C)c(F)c1C(=O)N(C1CC1)C(C)c1cccc2c1CCC(C)(C)C2 (stereo not shown) [CMP5, N-cyclopropyl-N-[1-(6,6-dimethyl-5,6,7,8-tetrahydronaphthalen-1-yl)ethyl]-5-fluoro-1,3-dimethyl-1H-pyrazole-4-carboxamide]
Efficacy ([2]; dose 250 ppm): 44%
Efficacy ([2]; dose 500 ppm): 56%

Cn1cc(C(=S)N(Cc2cccc3c2C2CCC3C2=C(Cl)Cl)C2CC2)c(C(F)F)n1 (stereo not shown) [I.10]
logP [1, 3]: 4.83
Efficacy (Botrytis cinerea; [6]): 100%
Efficacy (Puccinia recondita): 88%
Efficacy (Septoria tritici): 100%
Efficacy (Sphaerotheca fuliginea): 100%

Cn1nc(C(F)F)c(C(=O)N(Cc2cccc3c2C2CCC3O2)C2CC2)c1F (stereo not shown) [I.12]
logP [1, 3]: 2.55
Efficacy (Botrytis cinerea; [6]): 99%
Efficacy (Puccinia recondita): 89%
Efficacy (Septoria tritici): 100%
Efficacy (Sphaerotheca fuliginea): 100%

O=Cc1cccc2c1C1CCC2C1=C(Cl)Cl (stereo not shown) [IV.3, 9-(dichloromethylene)-1,2,3,4-tetrahydro-1,4-methanonaphthalene-5-carbaldehyde]
chromatographic logP [1]: 4.09

C1=CC2CC1c1cccc(CNC3CC3)c12 (stereo not shown) [IIa.2, N-(1,4-dihydro-1,4-methanonaphthalen-5-ylmethyl)cyclopropanamine]
chromatographic logP [1, 5]: 1.13

O=Cc1cccc2c1C1C=CC2C1 (stereo not shown) [IV.2, 1,4-dihydro-1,4-methanonaphthalene-5-carbaldehyde]
chromatographic logP [1, 4]: 2.73

Cn1cc(C(=O)N(Cc2cccc3c2C2C=CC3O2)C2CC2)c(C(F)(F)F)c1 (stereo not shown) [I.17]
logP [1, 3]: 2.70

Cn1cc(C(=O)N(Cc2cccc3c2C2C=CC3O2)C2CC2)c(C(F)F)n1 (stereo not shown) [I.15]
logP [1, 3]: 2.05
Efficacy (Sphaerotheca fuliginea): 72%

Cc1nn(C)c(F)c1C(=O)N(C1CC1)C(C)c1cccc2c1CCCC2 (stereo not shown) [CMP4, N-cyclopropyl-5-fluoro-1,3-dimethyl-N-[1-(5,6,7,8-tetrahydronaphthalen-1-yl)ethyl]-1H-pyrazole-4-carboxamide]
Efficacy ([2]; dose 250 ppm): 29%
Efficacy ([2]; dose 500 ppm): 57%
